Residues, ends and D or L forms follow the SMILES beside them. *: point of attachment. For = O=C*
Compound | melting point [°C]
Cc1c(-c2ccccc2)c(N2CC[C@H](N(C)C)C2)c2oc(-c3cnn(C)c3)nc2c1C#N | 214 to 222
CCC1(SC)CCC2C3CCC4=CC(=O)C=CC4(C)C3(F)C(O)CC21C (centres undefined) | 252 to 254
CC(CN1CCCC1)N1c2ccccc2Sc2ccc(C(=O)NCC3CCCCC3)cc21 (racemic) | 120
CCCCCCCOc1c(C)cc2[nH]c(S(=O)Cc3ncc(C)c(OC)c3C)nc2c1C (centres undefined) | 116
COc1ccc(NS(=O)(=O)c2sc3ccc(Cl)cc3c2C)cc1N1CCN(C(=O)OC(C)(C)C)CC1 | 100 to 103
O=C1N(N2CCOCC2)c2ccccc2C1(Cc1ccncc1)c1ccccc1 (centres undefined) | 190 to 192
CCN(CC1CCCC1)c1nc2c(cc1CN(Cc1cc(C(F)(F)F)cc(C(F)(F)F)c1)c1nc(C(F)(F)F)co1)c(C)nn2C | 139
COc1ccccc1N1CCN(CC(O)COc2ccc(CC(C)=O)cc2)CC1 (centres undefined) | 42 to 43
O=C(c1cc(O)c(O)c([N+](=O)[O-])c1)c1ccccc1F | 169 to 171
CCOC(=O)c1cc(=O)c2c(OCCOc3ccc([N+](=O)[O-])cc3)cccc2o1 | 158 to 161
O=C(O)c1ccc(S(F)(F)(F)(F)F)cc1[N+](=O)[O-] | 165 to 167
CCN1c2ncccc2C(=O)N(C)c2ccc(OC)nc21 | 116 to 118
COc1cc(Cc2cnc(N)nc2N)c2c(c1OC)OC(C)CC2O (centres undefined) | 201 to 203
OC(Cn1ccnc1)(c1ccc(F)cc1)c1ccc(-c2ccccc2)cc1 (centres undefined) | 220
CNn1c(C)nc(N2CCc3ccccc3CC2)c(C#N)c1=O | > 200
O=CNC(CC(=O)O)C(=O)NC(Cc1ccccc1)C(=O)O (stereo not drawn) (For-Asp-Phe-OH; configuration not given here) | 180 to 182
CCOC(=O)C1=C(COCCNS(=O)(=O)N2CCN(C)CC2)NC(C)=C(C(=O)OC)C1c1ccccc1Cl (centres undefined) | 137 to 139
OCc1ccc(N2CCN(Cc3ccc4ccccc4n3)CC2)cc1 | 126 to 127
C=CCN(C(C)=O)c1cccc(-c2ccc3nnc(C)n3n2)c1 | 114 to 115
NC(=O)COc1ccc(CCN2CCC(Nc3nc4ccccc4n3Cc3ccc(F)cc3)CC2)cc1 | 180
O=C1c2ccccc2C(=O)N1CC(=O)N1c2ccccc2N(Cc2ccc(O)cc2)C(=O)[C@H]2CCC[C@H]21 (relative stereo) | 264 to 267
CCOc1ccccc1N(C[C@H]1CCC[C@H](CN(C(=O)Nc2ccc(N(C)C)cc2)c2ccccc2OCC)C1)C(=O)Nc1ccc(N(C)C)cc1 (relative stereo) | 130 to 135
Cc1cc(C)cc(Oc2c(CCl)c(C)[nH]c(=O)c2I)c1 | 256 to 258
Clc1ccc2[nH]c3c(c2c1)CCC1(C3)OCCO1 | 128 to 138

Compound | melting point [°C]
O=C(NNC(=S)Nc1cccc(Br)c1)c1cccc([N+](=O)[O-])c1 | 163 to 165
CC(C)Oc1cc(-n2c(=O)cc(C(F)(F)F)n(C)c2=O)c(F)cc1Cl | 90 to 93
N#Cc1ccc(COc2ccc(CC(NC(=O)c3cn4ccc(-c5ccc(Cl)cc5)cc4n3)C(=O)O)cc2)cc1 (centres undefined) | 263
CC1=C([N+](=O)[O-])C(c2cccc(Cl)c2Cl)c2c[nH]nc2N1 (centres undefined) | > 270
FC(F)(F)c1cc(-c2nnn[nH]2)cc(C(F)(F)F)c1 | 179
CC(C)(C)c1ncc(C(=C(Cl)Cl)C(F)(F)F)cn1 | 58
O=C(NCCCCC1CCSS1)N1CCSC1 (centres undefined) | 76 to 77
Nc1cc(=O)n(Cc2ccc(Br)cc2)[nH]1 | 139
COc1ccc(Cl)cc1C1(O)C(=O)Nc2ccc(Br)cc21 (centres undefined) | 245 to 247
COc1ccc(OC)c(-c2c(O)c3ccc(Cl)cc3[nH]c2=O)c1 | 280 to 282
NC(=O)c1cc2ncccc2n1-c1ccc([N+](=O)[O-])cc1 | > 260
CC(=S)OC(c1ccccc1)C1(C)OCCO1 (centres undefined) | 49 to 52
Fc1ccccc1-c1nc(Cl)nc2ccc(Cl)cc12 | 208 to 210
COc1ccc(-c2nc(C(F)F)oc2-c2ccc(OCCO)cc2)cc1 | 114 to 116
O=C1C(c2cc3c(cc2O)OCCO3)c2ccccc2N1C(c1ccccc1)c1ccccc1 (centres undefined) | 157 to 160
CSc1cccc(Cc2sc(NC(C)=O)nc2C=O)c1 | 148 to 150
Cc1cc(Cl)nc(NC(=O)NS(=O)(=O)c2ccccc2OC(F)F)n1 | 190 to 191
COc1ccc2cc(CC(=O)N3CC=C(c4cccc(C(F)(F)F)c4)CC3)ccc2c1 | 102 to 105
O=C1c2ccccc2C(=O)N1OCCCC#Cc1ccc(F)cc1 | 85 to 88
C#CCn1nc(-c2ccc(F)cc2)c(-c2ccc(S(C)(=O)=O)cc2)cc1=O | 168 to 169
CCCCc1c2c(nn1CCC)c(N)nc1ccccc12 | 164 to 166
O=[N+]([O-])C=C1CN=C(c2ccccc2F)c2cc(Cl)ccc2N1 | 170 to 172
Cc1ccc(-c2ccc3c(c2)C=C(C(=O)Nc2ccc(CN(CCO)CCO)cc2)CC3)cc1 | 150 to 151
CCN1CCC(O)(c2cc(F)cc(Cl)c2)C1 (centres undefined) | 117 to 118

Compound | melting point [°C]
CC(=O)OC1CSC(Oc2ccc3nc(C)sc3c2)C(OC(C)=O)C1OC(C)=O (centres undefined) | 160
Cc1cc2c(cc1C(=O)N=C(N)N)S(=O)(=O)CC2(C)O (centres undefined) | 243 to 245
CCc1[nH]c(=O)n(-c2cc(C(=O)OC(C)C)c(Cl)cc2F)c(=O)c1C | 192 to 194
COC(=O)C1=C(C)NC(C)=C(C(=O)OCOC(=O)C(C)(C)C)C1c1cccc(Cl)c1Cl (single isomer, unassigned; (+)) | 154 to 155
CCOC(=O)C(=CNc1ccc(C2=NNC(=O)CC2)cc1)C(=O)OCC | 164
CCCCCCCC(=O)N(C)Cc1cccc(-c2ccc(CC3SC(=O)NC3=O)cc2C)c1 (centres undefined) | 130
CCCCC1(CCCC)c2cc(Br)ccc2-c2ccc(N(c3ccccc3)c3ccccc3)cc21 | 116 to 118
COc1ccc(C(=O)Nc2cnccc2Cl)cc1OC1CCCC1 | 130 to 132
CCOC(=O)N=P(c1ccccc1)(c1ccccc1)c1ccccc1CN(C)C | 103 to 105
CCOC(=O)c1nnc2n1-c1ccccc1C(c1ccccc1F)=NC2 | 195 to 197
Cc1cccc2c3c([nH]c12)CCCC3=O | > 247
CCCCN(CCCC)S(=O)(=O)c1ccc(C(CC2CCCC2)C(=O)Nc2nc3ccc(OC)nc3s2)cc1 (centres undefined) | 65 to 67
CC(C)c1nc(CCOC(=O)N[C@H](C(=O)N[C@@H](Cc2ccccc2)[C@@H](O)C[C@H](Cc2ccccc2)NC(=O)OCc2cncs2)C(C)C)cs1 | 159 to 160
N#CC=C(N)c1cccs1 | 50 to 54
O=S(=O)(c1ccccc1)n1c2ccc(C=Cc3ccccc3)cc2c2c(Cl)ccnc21 | 216 to 218
O=C(O)C=CC=CCS(=O)(=O)c1ccccc1 | 148 to 150
CN(C)c1ccc([N+](=O)[O-])c(C(=O)NCC2CCN(C(c3ccccc3)c3ccccc3)CC2)c1 | 200
COc1cccc(-c2c(NC(=O)Nc3c(C(C)C)cccc3C(C)C)c(=O)n(C)c3ncccc23)c1 | 169 to 170
CC12CC(N3CCC4(CC3)OCCO4)C(O)CC1CCC1C2CCC2(C)C(O)C(N3CCC(O)CC3)CC12 (centres undefined) | 253 to 255
CCN1CC(O)CC1=O (centres undefined) | 53 to 54
O=C1c2ccccc2C(=O)N1CCN1CCN(C(c2ccccc2)c2ccccn2)CC1 (centres undefined) | 114 to 117
Cc1c(C)c2c(c(C)c1OC(=O)CCC(=O)O)CCC(C)(COc1ccc(CC3SC(=O)NC3=O)cc1)O2 (centres undefined) | 197 to 202
Cc1cc(C(C)C(=O)O)n(C)c1C(=O)c1ccc(Cl)cc1 (centres undefined) | 153 to 154
COC(=O)C1(CF)C=NN(C)N1 (centres undefined) | 64 to 66

Compound | melting point [°C]
O=C(C=Cc1cccc(S(=O)(=O)NCc2ccco2)c1)NO | 165
COc1cccc(C(=O)Nc2nc(C(=O)c3ccc([N+](=O)[O-])c(OC)c3)n3ccccc23)c1 | 167
CNC(=O)C(Cc1ccc(OC)cc1)NC(=O)C(=CCC(=O)OC)CC(C)C (centres undefined) | 142 to 144
CC(C)C[C@H](NC(=O)OC(C)(C)C)C(=O)N[C@@H](C(C)C)[C@@H](O)c1c(-c2ccccc2)c1=O | 158 to 161
Cc1c(-c2ccccc2)sc2c1c(=O)c(C(=O)C(C)C)cn2Cc1c(F)cccc1F | 205 to 207
CC(C)(C)OC(=O)NC1CCN(CCO)CC1 | 66
c1ccc2c(c1)Cn1ccnc1CN2 | 164 to 170
[N-]=[N+]=NCc1ccc(C(=O)c2c(Cl)cccc2Cl)cc1 | 92 to 94
CC(C)Cn1c(C(C)O)nc2c(N)nc3ccccc3c21 (centres undefined) | 145 to 149
CC(C)OC(=O)C1C2CCC(C2)C1n1cc(F)c(=O)[nH]c1=O (centres undefined) | 135 to 136
Cc1cc(C(C)(C)C)cc(C)c1Cl | 39
CC(=O)N[C@@H](CSC(=O)[C@@H](C)c1ccc(CC(C)C)cc1)C(=O)O | 123 to 125
COc1cc(OC)cc(C2CC=CCC2=O)c1 (centres undefined) | 60 to 62
CS(=O)(=O)c1nccc(-c2ccc(Oc3ccc(F)cc3)cc2)n1 | 146 to 147
Cc1ccc(C(=O)Cn2c(-n3ncnc3N)nc3ccccc32)cc1C | 190 to 193
NC(=O)c1cc(=O)c(-c2ccccc2)co1 | 245 to 248
CCOC(=O)c1cnc2cc(OC)c(OC)cc2c1Nc1cccc(Br)c1 | 155 to 158
Cc1cc(C2=NN(C3=NCCS3)C(C)Cc3cc4c(cc32)OCO4)ccc1[N+](=O)[O-] (centres undefined) | 130 to 135
CC(=O)c1cccc(Oc2cccc(Cl)n2)c1 | 82 to 83
CC(C#N)(CCc1ccccc1C(F)(F)F)NC(=O)c1ccc(OC(F)(F)F)cc1 (centres undefined) | 87 to 89
CC(C)(C)OC(=O)N1[C@@H](Cc2cccc(C3CCC3)c2)C(=O)O[C@H](c2ccccc2)[C@@H]1c1ccccc1 | 145 to 147
COC(c1ccc(NC(=O)c2c(C)nn(C)c2C)cc1CC(C)C)(C(F)(F)F)C(F)(F)F | 189 to 190
